Measurements taken from PubChem BioAssay AID248 (DTP/NCI, 2004).
Values joined by “and” are separate entries in the source; they are usually repeats but may differ in a detail not shown here. Identical values can stand only once. Inconclusive results and toxic doses are left out.

Tested on: L1210 leukemia ip in BDF1 mice, survival T/C
Assay: NCI In Vivo Anticancer Drug Screen. Data for tumor model L1210 Leukemia (intraperitoneal) in B6D2F1 (BDF1) mice
Details: endpoint: mean survival time, higher = longer survival
How it was run: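 In this screen, tumor-bearing mice given compound are compared to those given vehicle, and their survival values are reported as a treated-to-control quotient.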

[1] = dose: 100.0 mg/kg/injection, schedule: Q04DX003 (ip), vehicle: saline
[2] = dose: 200.0 mg/kg/injection, schedule: Q04DX003 (ip), vehicle: saline
[3] = dose: 400.0 mg/kg/injection, schedule: Q04DX003 (ip), vehicle: saline
[4] = dose: 75.0 mg/kg/injection, schedule: Q01DX001 (ip), vehicle: carboxymethylcellulose (CMC)
[5] = dose: 100.0 mg/kg/injection, schedule: Q01DX001 (ip), vehicle: Klucel (hydroxypropylcellulose) (HPC)
[6] = dose: 200.0 mg/kg/injection, schedule: Q01DX001 (ip), vehicle: Klucel (hydroxypropylcellulose) (HPC)
[7] = dose: 100.0 mg/kg/injection, schedule: Q01DX001 (ip), vehicle: carboxymethylcellulose (CMC)
[8] = dose: 200.0 mg/kg/injection, schedule: Q01DX001 (ip), vehicle: carboxymethylcellulose (CMC)
[9] = dose: 400.0 mg/kg/injection, schedule: Q01DX001 (ip), vehicle: carboxymethylcellulose (CMC)
[10] = dose: 50.0 mg/kg/injection, schedule: Q01DX009 (ip), vehicle: saline
[11] = dose: 100.0 mg/kg/injection, schedule: Q01DX009 (ip), vehicle: saline
[12] = dose: 200.0 mg/kg/injection, schedule: Q01DX009 (ip), vehicle: saline
[13] = dose: 25.0 mg/kg/injection, schedule: Q01DX009 (ip), vehicle: Klucel (hydroxypropylcellulose) (HPC)
[14] = dose: 200.0 mg/kg/injection, schedule: Q01DX009 (ip), vehicle: Klucel (hydroxypropylcellulose) (HPC)
[15] = dose: 400.0 mg/kg/injection, schedule: Q01DX001 (ip), vehicle: Klucel (hydroxypropylcellulose) (HPC)
[16] = dose: 50.0 mg/kg/injection, schedule: Q01DX009 (ip), vehicle: Klucel (hydroxypropylcellulose) (HPC)
[17] = dose: 100.0 mg/kg/injection, schedule: Q04DX003 (ip), vehicle: Klucel (hydroxypropylcellulose) (HPC)
[18] = dose: 200.0 mg/kg/injection, schedule: Q04DX003 (ip), vehicle: Klucel (hydroxypropylcellulose) (HPC)

In the case of `Clc1ccc2c[n+]3ccccc3cc2c1`, the T/C (dose: 2.0 mg/kg/injection, schedule: Q01DX Z (ip), vehicle: carboxymethylcellulose (CMC)) is reported as 102 % of control, the T/C (dose: 4.0 mg/kg/injection, schedule: Q01DX Z (ip), vehicle: carboxymethylcellulose (CMC)) is reported as 92 % of control and the T/C (dose: 8.0 mg/kg/injection, schedule: Q01DX Z (ip), vehicle: carboxymethylcellulose (CMC)) is reported as 103 % of control. The T/C (dose: 16.0 mg/kg/injection, schedule: Q01DX Z (ip), vehicle: carboxymethylcellulose (CMC)) was 105 % of control.
In the case of `CCOC(=O)Cn1ccc(=O)[nH]c1=O`, the T/C [1] is reported as 98 % of control, the T/C [2] is reported as 96 % of control and the T/C [3] is reported as 102 % of control.
`NC(=S)N/N=C/c1ccc(F)cn1` was tested, and the T/C (dose: 1.56 mg/kg/injection, schedule: Q01DX009 (ip), vehicle: saline with Tween-80) was 99 % of control, the T/C (dose: 3.13 mg/kg/injection, schedule: Q01DX009 (ip), vehicle: saline with Tween-80) was 106 % of control and 115 % of control and the T/C (dose: 5.54 mg/kg/injection, schedule: Q01DX009 (ip), vehicle: saline with Tween-80) was 108 % of control. For the same compound, the T/C (dose: 6.25 mg/kg/injection, schedule: Q01DX009 (ip), vehicle: saline with Tween-80) was 119 % of control, the T/C (dose: 6.25 mg/kg/injection, schedule: Q04DX002 (ip), vehicle: saline with Tween-80) was 104 % of control and the T/C (dose: 8.32 mg/kg/injection, schedule: Q01DX009 (ip), vehicle: saline with Tween-80) was 114 % of control. For the same compound, the T/C (dose: 12.5 mg/kg/injection, schedule: Q01DX009 (ip), vehicle: saline with Tween-80) was 119 % of control and 124 % of control, the T/C (dose: 12.5 mg/kg/injection, schedule: Q04DX002 (ip), vehicle: saline with Tween-80) was 112 % of control and the T/C (dose: 18.8 mg/kg/injection, schedule: Q01DX009 (ip), vehicle: saline with Tween-80) was 98 % of control. For the same compound, the T/C (dose: 22.0 mg/kg/injection, schedule: Q01DX001 (ip), vehicle: saline with Tween-80) was 105 % of control, the T/C (dose: 25.0 mg/kg/injection, schedule: Q04DX002 (ip), vehicle: saline with Tween-80) was 97 % of control and the T/C (dose: 33.0 mg/kg/injection, schedule: Q01DX001 (ip), vehicle: saline with Tween-80) was 107 % of control.
With `O=C[C@@H](CO)O[C@H](C=O)c1c[nH]c(=O)[nH]c1=O` the T/C (dose: 66.0 mg/kg/injection, schedule: Q03DX003 (ip), vehicle: saline) was 213 % of control, the T/C (dose: 80.0 mg/kg/injection, schedule: Q04DX003 (ip), vehicle: saline) was 168 % of control and the T/C [1] was 209 % of control. For the same compound, the T/C (dose: 120.0 mg/kg/injection, schedule: Q04DX003 (ip), vehicle: saline) was 252 % of control, the T/C (dose: 140.0 mg/kg/injection, schedule: Q04DX003 (ip), vehicle: saline) was 204 % of control and the T/C (dose: 150.0 mg/kg/injection, schedule: Q03DX003 (ip), vehicle: saline) was 217 % of control.
With `NC(N)=Nc1ccc(Sc2ccc(N=C(N)N)cc2)cc1` the T/C [4] was 101 % of control, the T/C (dose: 150.0 mg/kg/injection, schedule: Q01DX001 (ip), vehicle: carboxymethylcellulose (CMC)) was 98 % of control and the T/C (dose: 300.0 mg/kg/injection, schedule: Q01DX001 (ip), vehicle: carboxymethylcellulose (CMC)) was 98 % of control.
For `C/C(=N/NC(N)=S)c1ccc[nH]1`, the T/C [5] was 108 % of control and the T/C [6] was 93 % of control.
`CCOC(=O)CC(CC(=O)OCC)NC(=O)c1ccc(N(C)Cc2ccccc2)cc1` was tested, and the T/C [7] was 107 % of control, the T/C [8] was 108 % of control and the T/C [9] was 105 % of control.
For `Nc1ccc(N2CCNCC2)cc1`, the T/C [10] was 101 % of control, the T/C [11] was 107 % of control and the T/C [12] was 111 % of control.
With `c1n[nH]c2c1CCC2` the T/C (dose: 75.0 mg/kg/injection, schedule: Q01DX009 (ip), vehicle: saline with Tween-80) was 97 % of control and the T/C (dose: 150.0 mg/kg/injection, schedule: Q01DX009 (ip), vehicle: saline with Tween-80) was 110 % of control.
For `CCC[CH2][Sn]1([CH2]CCC)[O]OC(c2ccc(C)cc2)[O]1` (stereo not drawn), the T/C (dose: 12.5 mg/kg/injection, schedule: Q01DX009 (ip), vehicle: Klucel (hydroxypropylcellulose) (HPC)) was 101 % of control, the T/C (dose: 12.5 mg/kg/injection, schedule: Q04DX002 (ip), vehicle: Klucel (hydroxypropylcellulose) (HPC)) was 94 % of control and the T/C [13] was 119 % of control. For the same compound, the T/C (dose: 25.0 mg/kg/injection, schedule: Q04DX002 (ip), vehicle: Klucel (hydroxypropylcellulose) (HPC)) was 86 % of control.
In the case of `c1ccc(N2N=NC3C4CC(C5COCC54)C32)cc1` (stereo not drawn), the T/C [5] is reported as 97 % of control, the T/C [6] is reported as 104 % of control and the T/C [14] is reported as 121 % of control. For the same compound, the T/C [15] was 109 % of control.
`OC1CCCCC1Br` (stereo not drawn) was tested, and the T/C (dose: 50.0 mg/kg/injection, schedule: Q01DX001 (ip), vehicle: saline) was 96 % of control, the T/C (dose: 100.0 mg/kg/injection, schedule: Q01DX001 (ip), vehicle: saline) was 98 % of control and the T/C (dose: 200.0 mg/kg/injection, schedule: Q01DX001 (ip), vehicle: saline) was 113 % of control. The T/C (dose: 400.0 mg/kg/injection, schedule: Q01DX001 (ip), vehicle: saline) was 102 % of control.
In the case of `[C-]#[N+]C([N+]#[C-])=S(C)C`, the T/C [10] is reported as 102 % of control, the T/C [11] is reported as 109 % of control and the T/C [1] is reported as 103 % of control. The T/C [12] was 105 % of control and the T/C [2] was 101 % of control.
For `CCCCCC1CCC(OC(=O)NC)CC1` (stereo not drawn), the T/C [5] was 99 % of control, the T/C [6] was 100 % of control and the T/C [15] was 94 % of control.
`N#CCN1Cc2ccccc2CCc2ccccc2C1` was tested, and the T/C [16] was 103 % of control, the T/C (dose: 100.0 mg/kg/injection, schedule: Q01DX009 (ip), vehicle: Klucel (hydroxypropylcellulose) (HPC)) was 108 % of control and the T/C [17] was 100 % of control. The T/C [14] was 107 % of control and the T/C [18] was 96 % of control.
With `CCN(CC)CCSC(=O)C(O)(c1ccccc1)C1CCCCC1` (stereo not drawn) the T/C (dose: 75.0 mg/kg/injection, schedule: Q01DX001 (ip), vehicle: other) was 100 % of control.
With `Cc1ccc(N2C=[N+](C)c3ccc(C)cc3C2)cc1` the T/C [17] was 100 % of control and the T/C [18] was 97 % of control.
In the case of `O=[N+]([O-])/C=C/c1ccc(Cl)cc1`, the T/C [13] is reported as 97 % of control and the T/C [16] is reported as 103 % of control.
In the case of `NCCC(c1ccccc1)c1ccccc1`, the T/C [4] is reported as 104 % of control.
In the case of `NC(=O)N(CCO)CCO`, the T/C [1] is reported as 110 % of control, the T/C [2] is reported as 96 % of control and the T/C [3] is reported as 104 % of control.
`CCS(=O)(=O)N(CC(=O)O)Cc1ccccc1` was tested, and the T/C [10] was 100 % of control, the T/C [11] was 104 % of control and the T/C [1] was 100 % of control. For the same compound, the T/C [12] was 93 % of control, the T/C [2] was 96 % of control and the T/C (dose: 300.0 mg/kg/injection, schedule: Q01DX009 (ip), vehicle: saline) was 95 % of control. The T/C [3] was 94 % of control.
`CN(C)c1ccc(C=Nc2ccc(N(C)C)cc2)cc1` was tested, and the T/C [7] was 105 % of control, the T/C (dose: 100.0 mg/kg/injection, schedule: Q01DX009 (ip), vehicle: carboxymethylcellulose (CMC)) was 96 % of control and 92 % of control and the T/C (dose: 100.0 mg/kg/injection, schedule: Q04DX002 (ip), vehicle: carboxymethylcellulose (CMC)) was 102 % of control and 104 % of control. The T/C (dose: 100.0 mg/kg/injection, schedule: Q04DX003 (ip), vehicle: carboxymethylcellulose (CMC)) was 102 % of control, the T/C [8] was 93 % of control and the T/C (dose: 200.0 mg/kg/injection, schedule: Q01DX009 (ip), vehicle: carboxymethylcellulose (CMC)) was 86 % of control and 88 % of control. For the same compound, the T/C (dose: 200.0 mg/kg/injection, schedule: Q04DX002 (ip), vehicle: carboxymethylcellulose (CMC)) was 98 % of control and 105 % of control, the T/C (dose: 200.0 mg/kg/injection, schedule: Q04DX003 (ip), vehicle: carboxymethylcellulose (CMC)) was 92 % of control and the T/C [9] was 88 % of control. The T/C (dose: 400.0 mg/kg/injection, schedule: Q01DX009 (ip), vehicle: carboxymethylcellulose (CMC)) was 86 % of control and 92 % of control, the T/C (dose: 400.0 mg/kg/injection, schedule: Q04DX002 (ip), vehicle: carboxymethylcellulose (CMC)) was 97 % of control and 100 % of control and the T/C (dose: 400.0 mg/kg/injection, schedule: Q04DX003 (ip), vehicle: carboxymethylcellulose (CMC)) was 92 % of control.
With `CC1(C)C2CCC1(C)C(C(=O)C(F)(F)F)C2=O.CC1(C)C2CCC1(C)C(C(=O)C(F)(F)F)C2=O.[Co]` (stereo not drawn) the T/C (dose: 100.0 mg/kg/injection, schedule: Q04DX002 (ip), vehicle: saline) was 110 % of control and the T/C (dose: 200.0 mg/kg/injection, schedule: Q04DX002 (ip), vehicle: saline) was 94 % of control.
